Values quoted from earlier work in patent US20200338057A1, “Methods of Treating Prostate Cancer Based on Molecular Subtypes” (Janssen Pharmaceutica NV, priority 2019, published 2020).

Experiments:
[1] = tested on: noncastrate hormone-sensitive and bicalutamide-resistant human prostate cancer xenograft models; conditions: noncastrate hormone-sensitive and bicalutamide-resistant human prostate cancer xenografts

AR binding affinity (AR) | Compound | Tumor response in xenograft models [1]
high affinity | CC(O)c1cc(C(=O)N[C@@H](C)Cn2ccc(-c3ccc(C#N)c(Cl)c3)n2)[nH]n1 (some centres unmarked) [Darolutamide, darolutamide] | 
 | CNC(=O)c1ccc(N2C(=S)N(c3cnc(C#N)c(C(F)(F)F)c3)C(=O)C23CCC3)cc1F [Apalutamide, 4-[7-(6-cyano-5-trifluoromethylpyridin-3-yl)-8-oxo-6-thioxo-5,7-diazaspiro[3.4]oct-5-yl]-2-fluoro-N-methylbenzamide] | partial or complete tumor regression
